pIC50, pKi: −log10 of the molar value. Where a name gives a salt, the structure may show the parent alone. Read-outs that look alike come from different tables or passages of the source.
Columns and labels:
[1] = system: wild type mice (male NMRI); experiment: Marble Burying Test in wild type mice; format: in vivo, mouse; details: Mus musculus, ip, read-out: Percent Change in marbles buried relative to vehicle
Protocol: Animals. Male NMRI mice (20-30 g body weight) were obtained from Janvier Labs (Le Genest-Saint Isle, France) and allowed to acclimate to the animal facility for at least 5 days. Twelve mice were studied per treatment group.
Compound formulation. The test compounds were prepared in a vehicle of 0.5% DMSO and 4% HP-β-CD, and administered orally (PO) or IP. The test compounds or vehicle were administered 20 minutes before the behavioral test described below. Clobazam (8 mg/kg IP), administered 30 minutes before the test, was used as the positive reference compound.
Clobazam was dispersed in 0.2% hydroxypropylmethylcellulose (HPMC) in physiological saline. Dosing volume was 10 mL/kg.
Testing procedure. The Marble Burying Test was conducted as previously described by Broekkamp et al. (Eur. J. Pharmacol. 1986, 126:223-229). Mice exposed to small novel objects (marbles) will bury them in the sawdust floor covering. Anxiolytics decrease the number of marbles buried at non-sedating doses. Mice were individually placed in transparent plastic cages (33×21×18 cm) with 5 cm of sawdust on the floor and 25 marbles grouped in the center of the cage. The cage was covered with an inverted plastic cage. Each test cage, together with the marbles, was impregnated with mouse odor before-hand by leaving 10 mice in the cage for 15 minutes. These mice then played no further role in the experiment. The number of marbles covered by sawdust (⅔ or more) was counted at the end of the 30-minute test. The test was performed blind (compounds versus vehicle).
Statistical analyses. Data were analyzed by comparing test compound-treated groups with the vehicle control group using the Kruskal-Wallis test followed by post-hoc Mann-Whitney U tests. Data comparing the reference compound with the vehicle were analyzed using the Mann-Whitney U test. A p value<0.05 was considered significant.

[2] = target: native rat brain NR2B receptors (Rattus norvegicus (Rat), UniProt P35439+Q00960); experiment: NR2B radioligand binding assay in rat brain using [3H] (E)-N1-(2-methoxybenzyl)-cinnamidine; details: rat brain NR2B receptors; mean of replicates; read-out: Arithmetic Mean Ki
Protocol: This example describes an NR2B receptor binding assay in rat brain using [^3H] […] The binding assay method was adapted from a previously described cellular human NR1a/NR2B cloned receptor assay (Kiss et al. Neurochem. Internatl. 2005, 46:453-464) to rat brain tissue. This assay serves as a selective measure of NR2B receptor binding activity in native rat brain receptors. Briefly, the brains of male Wistar rats were homogenized (Polytron) before centrifugation at 40,000×g for 15 minutes at 4° C. After 2 washes, the final pellet was homogenized and stored at −80° C. The protein concentration was determined by Bradford assay. [^3H] […] Non-specific binding was assessed in the presence of excess (10 μM) (E)-N1-(2-nethoxybenzyl)-cinnamidine.
Test compounds were solubilized at 10 mM in DMSO. Then the dilutions were performed with a constant solvent concentration (1% DMSO) in the assay. After incubation for 4.5 hours at room temperature, the assays were filtered on GF/3 filters pretreated with 0.3% (v/v) polyethylenimine (PEI) with a Packard system. The experiment was performed in duplicate (n=2).

human NR1/NR2B = human NR1/NR2B (Homo sapiens (Human), UniProt Q05586+Q13224); experiment: NR2B antagonist activity: calcium influx (Fluo-4) assay in HEK293 cells; format: cell-based
Protocol: Activation of the NR2A or NR2B subtype of NMDA receptor with glutamate as an agonist and glycine co-agonist on these cells results in calcium influx, which can be monitored with fluorescent indicator Fluo-4.
For experiments, the cells were seeded onto poly-D-lysine-coated 96-well black plates with clear bottom (Corning) at a density of ˜50,000 cells/well. After overnight culture, the growth medium was removed from the wells and the cells were incubated at 37° C. for 60 minutes in Hanks buffer containing 4 μM fluo-4-AM (Invitrogen) and 0.1% bovine serum albumin (BSA). After dye-loading, the cells were washed three times with Hanks buffer and incubated for 10 minutes at room temperature with various concentrations of test compounds prepared in Hanks buffer with 0.1% BSA. The cell plates were placed onto an FDSS Cell fluorescence reader (Hamamatsu). After 20 seconds of reading background fluorescence, agonist glutamate at final 100 µM and co-agonist glycine at final 50 μM were added to the cells to activate the receptor, and the resulting fluorescence changes were recorded and quantified. Based on the changes in fluorescence intensity, the pharmacological effect of test compounds was analyzed and the IC50 values derived from a non-linear least squares fitting of the concentration-dependent response to a standard logistic equation using Prism (Graphpad Software, Inc.): Amplitude=Max Amplitude/(1+(IC50/[antagonist])^n).

[3] = system: wild type mice (male C57Bl/6); experiment: Novelty Phobia Test in wild type mice; format: in vivo, mouse
Protocol: Animals. Male C57Bl/6 mice (18-30 g body weight; 6-8 weeks of age) were obtained from Slaccas (Shanghai, China) and allowed to acclimate to the animal facility for 7 days. Mice were group housed in plastic cages (no more than 4 animals per cage) on wood shavings with nesting material. All animals had free access to food (M01-F, Slaccas) and water. The animal facility was maintained under artificial lighting between 7:00 AM and 7:00 PM in a controlled ambient temperature of 22-24° C. and relative humidity between 50-60%.
Compound formulation. The test compounds were prepared in a vehicle of DMSO and HP-β-CD, and administered IP or PO. The test compounds or vehicle were administered at various times (10-20 minutes) before the behavioral test described below. Dosing volume was 10 mL/kg.
Testing procedure. The behavioral testing apparatus was a rectangular black Plexiglas, 2-chambered box, with no top or bottom (50 cm long, 26 cm wide and 15 cm tall) and allowed for the simultaneous testing of 2 mice. The box was placed on a laboratory bench. The chambers of the testing box were cleaned and fresh paper chip bedding was added between tests. Mice were brought to the experiment room in their home cages on the day of testing. Behavioral tests were conducted between 10:00 AM and 1:00 PM in dim light. After drug administration, a mouse was placed into a test chamber and allowed to explore for 10 minutes. After this habituation period, a novel object (e.g., a toy ball of 3 cm in diameter with spikes) was introduced to the center of the chamber for 5 minutes. For the entire 15-minute test period, video was recorded for offline analysis with Any-maze Video Tracking software (Stoelting Co., Wood Dale, Ill.). The total distance traveled during the entire 15 minutes and the number of bouts that each mouse touched the novel object during the last 5 minutes were measured.
Statistical analyses. Data are presented as means and SEMs. Data were analyzed using one-way analysis of variance (ANOVA; Prism, GraphPad Software Inc., San Diego, Calif.), followed by the post-hoc Dunnett's test to compare test compound-treated groups with the vehicle control. A p value<0.05 was considered significant.

hERG channel = hERG channel (Homo sapiens (Human), UniProt Q12809); experiment: hERG channel inhibition, whole cell patch clamp in HEK293 cells; format: cell-based; details: for pIC50: Table 1.3B
Protocol: The assay was performed on hERG channel stably expressed in HEK293 cells. The cells were cultured at 37° C. in a humidified CO2 incubator in the growth medium consisting of DMEM, 10% fetal bovine serum and antibiotics. Prior to the assay, the cells were seeded onto a 12-mm PDL-coated glass coverslip and cultured in a 35-mm Petri dish. After 16 to 40 hours culture, the coverslip was transferred into the chamber of OctaFlow perfusion system (ALA Instrument) and under a constant flow of extracellular solution (140 mM NaCl, 4 mM KCl, 1 mM MgCl2, 2 mM CaCl2, 10 mM HEPES, 10 mM D-glucose, pH 7.35, osmolarity 290). Whole cell patch clamping was performed with a glass micropipette filled with intracellular solution (120 mM KCl, 1.75 mM MgCl2, 5.4 mM CaCl2, 10 mM HEPES, 10 mM EGTA, and 4 mM ATP-K2, pH 7.2, osmolarity 310). Giga-seal was maintained during the test. The voltage control and current measurement were carried out using Axon amplifier 700B, Digidata 1440A and CLAMPEX10 software (Molecular Devices). Whole-cell hERG currents were recorded following the Petroski protocol: the cell was held at −80 mV, and the voltage step jumped from −80 to 30 mV and stay for 2 seconds with a 20-millisecond prepulse at −40 mV. After depolarization, the voltage was decreased to −40 mV and stay for 2 seconds, and returned back to −80 mV. Test compound was applied by quartz capillary tubes tip (200 m inner diameter), and the flow rate was controlled at 2-3 mL/min with OctaFlow perfusion system. Different concentrations of the compound were applied to the cells for 5 minutes and the hERG current was measured three times before, during and after compound treatment. The data were analyzed using Clampfit 10 software (Molecular Devices) to generate IC50 values.

CYP2D6 = CYP2D6 (Homo sapiens (Human), UniProt P10635); experiment: CYP P450 enzyme inhibition in pooled human liver microsomes (dextromethorphan probe); format: in vitro ADME; details: Table 1.4B
Protocol: Test compound concentration-dependent response studies were performed in triplicate.

[4] = Table 1.1A, read-out: NR2B IC50
[5] = Table 1.3A, read-out: hNR2B IC50
[6] = Table 1.4A, read-out: NR2B IC50

human NR1/NR2B, sequence (Q13224 27-1484, other chains not shown): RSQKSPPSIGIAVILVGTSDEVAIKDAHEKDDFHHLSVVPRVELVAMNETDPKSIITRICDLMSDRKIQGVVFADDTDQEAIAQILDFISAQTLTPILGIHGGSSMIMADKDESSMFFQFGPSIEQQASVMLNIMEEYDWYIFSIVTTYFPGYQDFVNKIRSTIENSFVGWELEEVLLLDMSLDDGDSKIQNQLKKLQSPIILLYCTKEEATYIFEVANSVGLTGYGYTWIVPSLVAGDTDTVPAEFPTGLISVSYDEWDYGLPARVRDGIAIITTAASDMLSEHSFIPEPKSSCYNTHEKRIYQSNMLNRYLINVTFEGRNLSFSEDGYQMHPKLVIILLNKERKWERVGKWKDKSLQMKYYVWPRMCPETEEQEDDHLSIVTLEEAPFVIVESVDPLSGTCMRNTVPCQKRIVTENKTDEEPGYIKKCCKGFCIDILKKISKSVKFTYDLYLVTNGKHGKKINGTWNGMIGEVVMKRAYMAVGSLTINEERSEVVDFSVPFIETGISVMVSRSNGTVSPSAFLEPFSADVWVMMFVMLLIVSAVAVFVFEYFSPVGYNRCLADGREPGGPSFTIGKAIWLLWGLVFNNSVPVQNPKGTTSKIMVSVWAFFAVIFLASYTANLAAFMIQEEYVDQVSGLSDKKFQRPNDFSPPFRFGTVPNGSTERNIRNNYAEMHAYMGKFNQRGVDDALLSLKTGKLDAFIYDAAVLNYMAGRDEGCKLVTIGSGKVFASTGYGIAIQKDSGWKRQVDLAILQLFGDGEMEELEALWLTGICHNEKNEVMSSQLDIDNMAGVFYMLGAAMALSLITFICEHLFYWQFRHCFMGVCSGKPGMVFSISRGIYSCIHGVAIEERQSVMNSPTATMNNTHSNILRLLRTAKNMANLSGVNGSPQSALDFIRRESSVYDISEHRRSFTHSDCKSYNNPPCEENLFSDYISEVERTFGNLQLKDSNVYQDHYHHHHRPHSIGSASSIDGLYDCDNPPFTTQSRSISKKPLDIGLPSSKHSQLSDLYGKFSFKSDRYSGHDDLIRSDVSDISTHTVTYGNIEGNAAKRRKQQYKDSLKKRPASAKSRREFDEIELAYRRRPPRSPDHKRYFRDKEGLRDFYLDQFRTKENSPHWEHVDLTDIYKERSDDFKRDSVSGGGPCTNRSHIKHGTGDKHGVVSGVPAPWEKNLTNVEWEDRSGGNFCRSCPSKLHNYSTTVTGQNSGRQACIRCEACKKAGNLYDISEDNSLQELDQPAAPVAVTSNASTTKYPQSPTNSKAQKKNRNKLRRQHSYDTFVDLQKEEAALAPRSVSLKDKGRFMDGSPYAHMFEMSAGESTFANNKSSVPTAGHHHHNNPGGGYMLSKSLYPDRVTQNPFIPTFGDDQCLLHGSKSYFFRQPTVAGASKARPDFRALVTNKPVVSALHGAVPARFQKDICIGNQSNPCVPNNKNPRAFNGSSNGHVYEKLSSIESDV
native rat brain NR2B receptors, sequence (Q00960 27-1482, other chains not shown): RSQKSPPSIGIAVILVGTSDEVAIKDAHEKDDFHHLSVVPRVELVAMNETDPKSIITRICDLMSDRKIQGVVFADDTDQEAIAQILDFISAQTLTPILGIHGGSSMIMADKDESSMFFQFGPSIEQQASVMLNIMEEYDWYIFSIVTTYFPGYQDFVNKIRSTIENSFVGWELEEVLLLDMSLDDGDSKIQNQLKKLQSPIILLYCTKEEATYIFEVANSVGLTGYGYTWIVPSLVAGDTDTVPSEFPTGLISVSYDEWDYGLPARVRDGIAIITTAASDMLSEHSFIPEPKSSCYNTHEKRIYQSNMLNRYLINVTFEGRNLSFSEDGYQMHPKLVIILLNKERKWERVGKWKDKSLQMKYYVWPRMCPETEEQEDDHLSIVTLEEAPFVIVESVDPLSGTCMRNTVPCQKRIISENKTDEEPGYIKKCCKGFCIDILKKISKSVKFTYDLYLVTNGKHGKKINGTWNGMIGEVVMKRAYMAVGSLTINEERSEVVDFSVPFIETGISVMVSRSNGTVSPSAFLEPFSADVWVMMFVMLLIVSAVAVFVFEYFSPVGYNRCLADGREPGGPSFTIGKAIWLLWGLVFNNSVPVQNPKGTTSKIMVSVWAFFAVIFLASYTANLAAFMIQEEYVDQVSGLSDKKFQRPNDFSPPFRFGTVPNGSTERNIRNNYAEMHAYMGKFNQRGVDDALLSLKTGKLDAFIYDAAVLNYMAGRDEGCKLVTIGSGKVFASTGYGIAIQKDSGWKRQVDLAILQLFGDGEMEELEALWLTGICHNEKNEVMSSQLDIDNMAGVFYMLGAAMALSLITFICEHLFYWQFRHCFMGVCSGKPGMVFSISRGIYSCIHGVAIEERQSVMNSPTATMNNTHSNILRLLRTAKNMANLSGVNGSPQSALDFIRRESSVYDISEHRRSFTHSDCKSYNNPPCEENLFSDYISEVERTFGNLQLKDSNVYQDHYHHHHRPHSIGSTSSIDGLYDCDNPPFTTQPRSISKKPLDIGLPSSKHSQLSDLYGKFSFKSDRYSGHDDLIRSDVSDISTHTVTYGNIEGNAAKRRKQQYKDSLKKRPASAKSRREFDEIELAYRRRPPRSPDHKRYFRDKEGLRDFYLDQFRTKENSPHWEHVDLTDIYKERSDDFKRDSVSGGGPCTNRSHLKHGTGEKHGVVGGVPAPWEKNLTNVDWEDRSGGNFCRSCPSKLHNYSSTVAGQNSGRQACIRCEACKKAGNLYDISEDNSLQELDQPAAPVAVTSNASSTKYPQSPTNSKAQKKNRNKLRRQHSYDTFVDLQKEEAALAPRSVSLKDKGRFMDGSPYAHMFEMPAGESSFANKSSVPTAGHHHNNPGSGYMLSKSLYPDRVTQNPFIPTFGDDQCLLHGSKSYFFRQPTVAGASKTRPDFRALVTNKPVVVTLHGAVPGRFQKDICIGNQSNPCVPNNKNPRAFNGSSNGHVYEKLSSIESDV
hERG channel, sequence (Q12809 whole entry): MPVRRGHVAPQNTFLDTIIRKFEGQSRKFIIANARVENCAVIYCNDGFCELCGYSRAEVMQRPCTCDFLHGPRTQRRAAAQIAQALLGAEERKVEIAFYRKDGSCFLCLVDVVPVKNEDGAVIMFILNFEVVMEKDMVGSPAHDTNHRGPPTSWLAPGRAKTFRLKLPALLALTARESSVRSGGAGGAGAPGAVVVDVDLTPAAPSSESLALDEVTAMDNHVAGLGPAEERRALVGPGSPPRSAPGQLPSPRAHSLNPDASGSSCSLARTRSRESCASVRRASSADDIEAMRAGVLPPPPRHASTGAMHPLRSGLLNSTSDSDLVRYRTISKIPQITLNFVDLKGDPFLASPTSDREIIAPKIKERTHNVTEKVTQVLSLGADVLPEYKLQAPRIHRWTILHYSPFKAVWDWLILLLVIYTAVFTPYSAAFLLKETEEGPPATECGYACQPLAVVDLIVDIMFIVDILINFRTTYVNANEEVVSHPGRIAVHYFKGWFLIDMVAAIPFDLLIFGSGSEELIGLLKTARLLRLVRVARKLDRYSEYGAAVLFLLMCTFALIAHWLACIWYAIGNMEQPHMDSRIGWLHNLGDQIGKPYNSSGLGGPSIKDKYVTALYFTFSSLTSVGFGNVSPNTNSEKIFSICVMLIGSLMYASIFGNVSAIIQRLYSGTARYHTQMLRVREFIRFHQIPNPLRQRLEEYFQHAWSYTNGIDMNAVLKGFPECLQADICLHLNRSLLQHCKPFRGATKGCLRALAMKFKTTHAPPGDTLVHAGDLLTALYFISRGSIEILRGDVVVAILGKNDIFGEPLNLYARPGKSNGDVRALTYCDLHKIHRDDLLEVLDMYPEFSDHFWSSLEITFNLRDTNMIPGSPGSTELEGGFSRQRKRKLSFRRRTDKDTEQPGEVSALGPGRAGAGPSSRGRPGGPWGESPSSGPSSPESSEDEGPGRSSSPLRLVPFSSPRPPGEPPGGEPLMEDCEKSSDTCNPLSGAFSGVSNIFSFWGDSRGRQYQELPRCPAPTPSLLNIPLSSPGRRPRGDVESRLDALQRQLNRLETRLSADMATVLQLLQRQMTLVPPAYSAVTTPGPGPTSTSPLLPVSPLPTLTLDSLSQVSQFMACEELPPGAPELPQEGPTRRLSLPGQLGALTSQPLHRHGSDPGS
CYP2D6, sequence (P10635 whole entry): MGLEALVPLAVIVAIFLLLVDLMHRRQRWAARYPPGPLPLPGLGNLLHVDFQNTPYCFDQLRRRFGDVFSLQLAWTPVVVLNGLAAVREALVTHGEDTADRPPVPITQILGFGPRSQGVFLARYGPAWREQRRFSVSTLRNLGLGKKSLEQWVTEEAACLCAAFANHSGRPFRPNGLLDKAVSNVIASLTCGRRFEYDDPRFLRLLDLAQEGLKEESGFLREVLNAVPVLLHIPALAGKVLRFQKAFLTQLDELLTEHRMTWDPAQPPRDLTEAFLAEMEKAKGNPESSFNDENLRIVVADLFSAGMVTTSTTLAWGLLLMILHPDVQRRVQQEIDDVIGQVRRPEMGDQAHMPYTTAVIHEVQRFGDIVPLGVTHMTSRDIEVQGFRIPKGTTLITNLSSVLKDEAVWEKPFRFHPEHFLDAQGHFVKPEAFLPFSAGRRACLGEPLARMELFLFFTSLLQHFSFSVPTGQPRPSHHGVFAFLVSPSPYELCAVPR

## FC(F)(F)c1ccc(C(F)(F)CN2CCC(Nc3ncnc4[nH]ccc34)CC2)nc1 [C-5^A′]
[1]
  change in vivo at 3 mg/kg: 2%
  change in vivo at 10 mg/kg: -50%
[1]; 30 mg/kg
  change in vivo at 30 mg/kg: -98%
[2]
  pKi: 7.80
Human NR1/NR2B; [4]
  pIC50: 7.52
Human NR1/NR2B; [5]
  pIC50: 7.52
Human NR1/NR2B; [6]
  pIC50: 7.52
[3]; IP (C-11 also PO)
  bouts of nose touching of the novel object, efficacy: not efficacious
[3]; Mus musculus, ip, 10 min, IP, 10 mg/kg, pre-test time 10 min, read-out: Percent Change in Novel Object Number of Nose Touches relative to vehicle control
  change in vivo at 10 mg/kg: 70.8%
[3]; Mus musculus, ip, 10 min, IP, pre-test time 10 min, read-out: Percent Change in Novel Object Number of Nose Touches relative to vehicle control
  change in vivo at 30 mg/kg: 42.4%
[3]; Mus musculus, ip, 10 min, IP, 60 mg/kg, pre-test time 10 min, read-out: Percent Change in Novel Object Number of Nose Touches relative to vehicle control
  change in vivo at 60 mg/kg: -36.9%

## FC(F)(F)c1ccc(C(F)(F)CN2CCC(Nc3ncnc4[nH]ccc34)CC2)cn1 [C-127^A′]
[1]
  change in vivo at 1 mg/kg: 15%
  change in vivo at 3 mg/kg: -27%
  change in vivo at 10 mg/kg: -98%
[2]
  pKi: 7.50
Human NR1/NR2B; [4]
  pIC50: 7.35
Human NR1/NR2B; [5]
  pIC50: 7.35
Human NR1/NR2B; [6]
  pIC50: 7.35
[3]; Mus musculus, ip, 0.25 h, IP, 20 mg/kg, pre-test time 15 min, read-out: Percent Change in Novel Object Number of Nose Touches relative to vehicle control
  change in vivo at 20 mg/kg: 120%
[3]; Mus musculus, ip, 0.25 h, IP, pre-test time 15 min, read-out: Percent Change in Novel Object Number of Nose Touches relative to vehicle control
  change in vivo at 30 mg/kg: 160%
[3]; mouse, in vivo
  pattern of the dose-response function for bouts of nose touching: dose-dependent increases

## O=C(OCc1ccc(F)cc1)N1CC[C@H](CNc2ncccn2)C(F)(F)C1 [E1-22.4^B′, (R)-4-fluorobenzyl 3,3-difluoro-4-((pyrimidin-2-ylamino)methyl)piperidine-1-carboxylate methanesulfonate]
[1]; 0.3 mg/kg
  change in vivo at 0.3 mg/kg: -6%
[1]; 1.78 mg/kg
  change in vivo at 1.78 mg/kg: -97%
[1]
  change in vivo at 3 mg/kg: -99%
hERG channel
  pIC50: 4.41
CYP2D6
  pIC50: < 4.30

## Cc1ccc(COC(=O)N2CC[C@H](CNc3ncc(C)cn3)C(F)(F)C2)cc1 [E1-22.26^B′, (R)-4-methylbenzyl 3,3-difluoro-4-(((5-methylpyrimidin-2-yl)amino)methyl)piperidine-1-carboxylate mesylate]
[1]
  change in vivo at 1 mg/kg: -12%
  change in vivo at 3 mg/kg: -23%
  change in vivo at 10 mg/kg: -96%
[2]
  pKi: 8.47

## Cc1ccc(COC(=O)N2CC[C@H](CNc3ccccn3)C(F)(F)C2)cc1 [E1-23.2^B′, (R)-4-methylbenzyl 3,3-difluoro-4-((pyridin-2-ylamino)methyl)piperidine-1-carboxylate]
hERG channel
  pIC50: 5.25
CYP2D6
  pIC50: 4.74

## O=C(OCc1ccc(F)cc1)N1CC[C@H](CNc2cccnn2)C(F)(F)C1 [E1-24.4^B′, (R)-4-fluorobenzyl 3,3-difluoro-4-((pyridazin-3-ylamino)methyl)piperidine-1-carboxylate methanesulfonate]
[2]
  pKi: 8.00

## O=C(OCc1ccc(C(F)F)cc1)N1CC[C@H](CNc2cccnn2)C(F)(F)C1 [E1-24.6^B′, (R)-4-(difluoromethyl)benzyl 3,3-difluoro-4-((pyridazin-3-ylamino)methyl)piperidine-1-carboxylate hydrochloride]
[2]
  pKi: 8.33

## Cc1ccc(COC(=O)N2CC[C@H](CNc3ccncn3)C(F)(F)C2)cc1 [E1-37.2^B′, (R)-4-methylbenzyl 3,3-difluoro-4-((pyrimidin-4-ylamino)methyl)piperidine-1-carboxylate methanesulfonate]
CYP2D6
  pIC50: 6.70

## O=C(OCc1ccc(F)cc1)N1CC[C@H](CNc2ccncn2)C(F)(F)C1 [E1-37.4^B′, (R)-4-fluorobenzyl 3,3-difluoro-4-((pyrimidin-4-ylamino)methyl)piperidine-1-carboxylate mesylate]
[2]
  pKi: 8.33

## O=C(OCc1ccc(C(F)F)cc1)N1CC[C@H](CNc2ccncn2)C(F)(F)C1 [E1-37.6^B′, (R)-4-(difluoromethyl)benzyl 3,3-difluoro-4-((pyrimidin-4-ylamino)methyl)piperidine-1-carboxylate hydrochloride]
[2]
  pKi: 8.41

## O=C(OCc1ccc(F)cc1)N1CC[C@H](CNc2ccncc2F)C(F)(F)C1 [E1-38.10^B′, (R)-4-fluorobenzyl 3,3-difluoro-4-(((3-fluoropyridin-4-yl)amino)methyl)piperidine-1-carboxylate mesylate]
[2]
  pKi: 8.42

## Cc1ccc(COC(=O)N2CC[C@@H](CNc3nccn4cnnc34)C(F)(F)C2)cc1 [E2-1.2^B′]
[2]
  pKi: 7.07
hERG channel; human, HEK293 cells stably expressing hERG channel, pH 7.35, 10 μM
  inhibition at 5 min, 10 µM: 22%
Human NR1/NR2B; Table 1.1B, read-out: NR2B IC50
  pIC50: 6.81
Human NR1/NR2B; Table 1.3B, read-out: NR2B IC50
  pIC50: 6.81
Human NR1/NR2B; Table 1.4B, read-out: NR2B IC50
  pIC50: 6.81

## O=C(OC1Cc2ccccc2C1)N1CC[C@H](CNc2ncccn2)C(F)(F)C1 [III-E1-22.1^B′, (R)-2,3-dihydro-1H-inden-2-yl 3,3-difluoro-4-((pyrimidin-2-ylamino)methyl)piperidine-1-carboxylate methanesulfonate]
hERG channel
  pIC50: 4.46
CYP2D6
  pIC50: < 4.30
